Values belong to the molecule of their own block, whether it stands above or below them.
Tests used:
[1] = target: T1, phthalyl amidase (Xanthobacter agilis, UniProt P0C2Y0); assay: Preparative scale hydrolysis to carbacephem nucleus; type: biochemical
T1 construct: 42-aa signal peptide removed
Method: (§1) Thus, either compound XXXIII or III can be used to prepare the carbacephem nucleus (XXXIV). Substrate (4 grams) was added to 20 ml of deionized water and the pH of the solution was adjusted to 8.0 with concentrated ammonium hydroxide. Phthalyl amidase, 80 units as determined using the chromogenic substrate (II), was added to start the reaction. Temperature was maintained at 30° C. and the pH maintained at 8.0 by adding 2N ammonium hydroxide. […] The pH of the reaction was lowered to 5.0 thereby precipitating the carbacephem nucleus. Isolated yields of the nucleus were between 65% and 77%. [drawing 26]

[2] = target: T1, phthalyl amidase; assay: Substrate specificity: chemical structure requirements for enzyme activity; type: biochemical; conditions: 2.5 μmol compound, 0.3 units enzyme, 50 mM phosphate pH 8.0, 30° C.
Method: (§2) The activity of phthalyl amidase against 25 compounds was determined. The compounds were divided into beta-lactams (Table 9), phthalyl amides (Table 10), and aromatic ring substituted amides (Table 11). Each reaction mixture (1 ml total volume) contained 2.5 μmol of compound and 0.3 units of enzyme (based on the chromogenic substrate) of the preparative scale purified enzyme, in 50 mM phosphate buffer, pH 8.0. The reactions were conducted at 30° C. Samples of the reaction mixture were taken at various times, and methanol (equal volume) was added to stop the reaction. The samples were examined by HPLC to determine the extent of substrate hydrolysis. The amount of compound hydrolyzed was calculated from a standard curve of the test compound. All substrates were stable in buffer at 30° C. and pH 8.0 in the absence of enzyme for 24 hours.

[3] = target: T1, phthalyl amidase; assay: Chiral and additional substrate selectivity of phthalyl amidase; type: biochemical; conditions: Table 13; III = 100; 0.009 mg (0.6 units) enzyme, 2.5 μmol substrate, buffer A, 30° C.
Method: Several additional substrates were tested in a total volume of 1 ml. […] Reactions were stopped by the addition of methanol, and phthalic acid formation was monitored by HPLC.

[4] = target: T1, phthalyl amidase; assay: Kinetic parameters for phthalyl amidase; type: biochemical; conditions: 50 mM potassium phosphate buffer, pH 8.0, 30° C.
Method: (§3) The kinetic parameters of the enzyme were determined for several representative substrates. Compounds II, XVII, and XVIII were tested using 0.9 μg/ml of enzyme. Compounds III and XI were tested using 5.14 μg/ml of enzyme. Substrate concentrations were between 0 and 25 mM and reaction time was between 2 and 20 minutes, depending on the substrate used. […] Km is the Michaelis constant for enzyme kinetics, Vmax is the maximal rate of reaction calculated by the Michaelis-Menten equation, and Kcat is the catalytic constant for an enzyme reaction.

[5] = Stability of substrates in buffer without enzyme; type: physicochemical; conditions: buffer at pH 8.0
Method: as §2
as §1, with “Isolated yields of the nucleus were between 65% and 77%. [drawing 26]” left out

[6] = substrate: O=C(O)C1=C(Cl)CCC2C(NC(=O)c3ccccc3C(=O)O)C(=O)N12; assay: Kinetic parameters for phthalyl amidase; type: biochemical, Xanthobacter agilis
Method: as §3

[7] = substrate: CCCCCCC(C(=O)O)n1cnc(NC(=O)c2c(F)cccc2C(=O)O)c1; assay: Kinetic parameters for phthalyl amidase; type: biochemical, Xanthobacter agilis; conditions: other: 32° C., pH 8.2; II, XVII, XVIII with 0.9 μg/ml enzyme, III and XI with 5.14 μg/ml; pH 8.2; 32.0 °C
Method: as §3

[8] = substrate: O=C(O)c1ccccc1C(=O)Nc1ccc([N+](=O)[O-])c(C(=O)O)c1; assay: Kinetic parameters for phthalyl amidase; type: biochemical, Xanthobacter agilis; conditions: other: 32° C., pH 8.2; II, XVII, XVIII with 0.9 μg/ml enzyme, III and XI with 5.14 μg/ml; pH 8.2; 32.0 °C
Method: as §3

[9] = substrate: CCCCCCC(C(=O)O)n1cnc(NC(=O)c2ccccc2C(=O)O)c1; assay: Kinetic parameters for phthalyl amidase; type: biochemical, Xanthobacter agilis; conditions: other: 32° C., pH 8.2; II, XVII, XVIII with 0.9 μg/ml enzyme, III and XI with 5.14 μg/ml; pH 8.2; 32.0 °C
Method: as §3

[10] = substrate: O=C(O)CNC(=O)c1ccccc1C(=O)O; assay: Kinetic parameters for phthalyl amidase; type: biochemical, Xanthobacter agilis; conditions: other: 32° C., pH 8.2; II, XVII, XVIII with 0.9 μg/ml enzyme, III and XI with 5.14 μg/ml; pH 8.2; 32.0 °C
Method: as §3

- hydrolyzed (HPLC) ([1]; phthalyl amidase, […], pH 8): 90.0%
- Relative Activity ([2]; Table 9 beta-lactams, III = 100): 100
- Relative Activity ([2]; Table 10 phthalyl amides, III = 100.0): 100.0
- Relative Activity [3]: 100
- Vmax [4]: 7.6 µmol/min/mg
Molecule: O=C(O)C1=C(Cl)CCC2C(NC(=O)c3ccccc3C(=O)O)C(=O)N12 (stereo not shown) [III, 7-phthalamido-3-chloro-4-carboxy-1-carba-dethioceph-3-em]

Molecule: O=C(O)C1=C(Cl)CCC2C(N3C(=O)c4ccccc4C3=O)C(=O)N12 (stereo not shown) [XXXIII]
- hydrolyzed (HPLC) ([1]; 4 grams substrate, 80 units enzyme, pH 8.0, 30° C., after 510 minutes): 98%
- hydrolysis of phthalimido to phthalamido form in buffer (in words) [5]: readily hydrolyzes

B1: phthalyl amidase (Xanthobacter agilis) (protein)
chain: QAPSVHQHVAFTEEIGDLPDGSSYMIRVPENWNGVLIRDLDLVSGTSNSNAARYETMLKEGFAVAGTARHPLRQWQYDPAHEIENLNHVLDTFEENYGSPERVIQYGCSGGAHVSLAVAEDFSDRVDGSVALAAHTPVWIMNSFLDGWFSLQSLIGEYYVEAGHGPLSDLAITKLPNDGSSNSSGHGMEGDLPAAWRNAFTAANATPEGRARMALAFALGQWSPWLADNTPQPDLDDPEAIADSVYESAMRLAGSPGGEARIMFENAARGQQLSWNDDIDYADFWENSNPAMKSAVQELYDTAGLDLQSDIETVNSQPRIEASQYALDYWNTPGRNVIGDPEVPVLRLHMIGDYQIPYSLVQGYSDLISENNNDDLYRTAFVQSTGHCNFTAAESSAAIEVMMQRLDTGEWPSTEPDDLNAIAEASNTGTEARFMALDGWEIPEYNRTWKPE
notes: 42-aa signal peptide removed
- Km ([6]; other: 50 mM potassium phosphate buffer, pH 8.0, 30° C., pH 8.0, 30.0 °C): 900 µM
- Km ([6]; other: 32° C., pH 8.2, II, XVII, XVIII with 0.9 μg/ml enzyme, III and XI with 5.14 μg/ml, pH 8.2, 32.0 °C): 900 µM
- Km [7]: 170 µM
- Km [8]: 50 µM
- Km [9]: 90 µM
- Km [10]: 140 µM
